{"source": "patent US20200405697A1", "about": "“Antitumor Agent” (Taiho Pharmaceutical Co., Ltd, priority 2017, published 2020)", "system": "A549 (Human lung cancer cell line)", "test": "Effect of combination of sulfonamide compound and other antitumor agent (CellTiter-Glo, combination index): A549", "key": {"[1]": {"conditions": "Example Compound 1 281 nM + Fludarabine nucleoside 5920 nM, molar ratio 1:21.08"}, "[2]": {"conditions": "Example Compound 1 281 nM + Prexasertib 1.97 nM, molar ratio 1:0.007018"}, "[3]": {"conditions": "Example Compound 1 281 nM + SCH900776 908 nM, molar ratio 1:3.232"}, "[4]": {"conditions": "Example Compound 1 422 nM + AZD6738 1040 nM, molar ratio 1:2.455"}, "[5]": {"conditions": "Example Compound 1 422 nM + Cytarabine 108 nM, molar ratio 1:0.2566"}, "[6]": {"conditions": "Example Compound 1 422 nM + Fludarabine nucleoside 8900 nM, molar ratio 1:21.08"}, "[7]": {"conditions": "Example Compound 1 422 nM + Prexasertib 2.96 nM, molar ratio 1:0.007018"}, "[8]": {"conditions": "Example Compound 1 422 nM + SCH900776 1360 nM, molar ratio 1:3.232"}, "[9]": {"conditions": "Example Compound 1 633 nM + AZD6738 1550 nM, molar ratio 1:2.455"}, "[10]": {"conditions": "Example Compound 1 633 nM + Fludarabine nucleoside 13300 nM, molar ratio 1:21.08"}, "[11]": {"conditions": "Example Compound 1 633 nM + Guadecitabine 489 nM, molar ratio 1:0.7725"}, "[12]": {"conditions": "Example Compound 1 633 nM + Prexasertib 4.44 nM, molar ratio 1:0.007018"}, "[13]": {"conditions": "Example Compound 1 633 nM + SCH900776 2050 nM, molar ratio 1:3.232"}, "[14]": {"conditions": "Example Compound 1 949 nM + AZD6738 2330 nM, molar ratio 1:2.455"}, "[15]": {"conditions": "Example Compound 1 949 nM + Azacytidine 2740 nM, molar ratio 1:2.885"}, "[16]": {"conditions": "Example Compound 1 949 nM + Cytarabine 244 nM, molar ratio 1:0.2566"}, "[17]": {"conditions": "Example Compound 1 949 nM + Decitabine 2000 nM, molar ratio 1:2.108"}, "[18]": {"conditions": "Example Compound 1 949 nM + Fludarabine nucleoside 20000 nM, molar ratio 1:21.08"}, "[19]": {"conditions": "Example Compound 1 949 nM + Guadecitabine 733 nM, molar ratio 1:0.7725"}, "[20]": {"conditions": "Example Compound 1 949 nM + Prexasertib 6.66 nM, molar ratio 1:0.007018"}, "[21]": {"conditions": "Example Compound 1 949 nM + SCH900776 3070 nM, molar ratio 1:3.232"}, "[22]": {"conditions": "Example Compound 1 949 nM + Sunitinib 1870 nM, molar ratio 1:1.969"}, "[23]": {"conditions": "Example Compound 1 949 nM + Trifluridine 430 nM, molar ratio 1:0.4535"}, "[24]": {"conditions": "Example Compound 1 1420 nM + 5-Fluorouracil 2700 nM, molar ratio 1:1.900"}, "[25]": {"conditions": "Example Compound 1 1420 nM + AZD6738 3490 nM, molar ratio 1:2.455"}, "[26]": {"conditions": "Example Compound 1 1420 nM + Azacytidine 4100 nM, molar ratio 1:2.885"}, "[27]": {"conditions": "Example Compound 1 1420 nM + Cytarabine 364 nM, molar ratio 1:0.2566"}, "[28]": {"conditions": "Example Compound 1 1420 nM + Decitabine 2990 nM, molar ratio 1:2.108"}, "[29]": {"conditions": "Example Compound 1 1420 nM + Etoposide 3780 nM, molar ratio 1:2.663"}, "[30]": {"conditions": "Example Compound 1 1420 nM + Gemcitabine 8.37 nM, molar ratio 1:0.005895"}, "[31]": {"conditions": "Example Compound 1 1420 nM + Guadecitabine 1100 nM, molar ratio 1:0.7725"}, "[32]": {"conditions": "Example Compound 1 1420 nM + Lapatinib 5990 nM, molar ratio 1:4.216"}, "[33]": {"conditions": "Example Compound 1 1420 nM + Luminespib 13.5 nM, molar ratio 1:0.009473"}, "[34]": {"conditions": "Example Compound 1 1420 nM + Midostaurin 250 nM, molar ratio 1:0.1761"}, "[35]": {"conditions": "Example Compound 1 1420 nM + Olaparib 14800 nM, molar ratio 1:10.40"}, "[36]": {"conditions": "Example Compound 1 1420 nM + Oxaliplatin 1060 nM, molar ratio 1:0.7448"}, "[37]": {"conditions": "Example Compound 1 1420 nM + Sunitinib 2800 nM, molar ratio 1:1.969"}, "[38]": {"conditions": "Example Compound 1 1420 nM + Talazoparib 7980 nM, molar ratio 1:5.617"}, "[39]": {"conditions": "Example Compound 1 1420 nM + Trifluridine 644 nM, molar ratio 1:0.4535"}, "[40]": {"conditions": "Example Compound 1 2140 nM + Cabozantinib […], molar ratio 1:4.216"}, "[41]": {"conditions": "Example Compound 1 2140 nM + Carboplatin 79500 nM, molar ratio 1:37.17"}, "[42]": {"conditions": "Example Compound 1 2140 nM + Cisplatin 9620 nM, molar ratio 1:4.494"}, "[43]": {"conditions": "Example Compound 1 2140 nM + Trifluridine 970 nM, molar ratio 1:0.4535"}, "[44]": {"conditions": "Example Compound 1 3200 nM + Carboplatin 119000 nM, molar ratio 1:37.17"}, "[45]": {"conditions": "Example Compound 1 3200 nM + Cisplatin 14400 nM, molar ratio 1:4.494"}, "[46]": {"conditions": "Example Compound 1 4810 nM + Carboplatin 179000 nM, molar ratio 1:37.17"}}}
{"molecule": "Cc1ccc(F)c([C@@H](C)[C@H](NS(=O)(=O)c2ccc(Br)cc2C(N)=O)c2n[nH]c(=O)o2)c1C", "note": "[Example 1, 5-bromo-2-(N-((1 S,2R)-2-(6-fluoro-2,3-dimethylphenyl)-1-(5-oxo-4,5-dihydro-1,3,4-oxadiazol-2-yl)propyl)sulfamoyl)benzamide]", "values": [{"measurement": "CI value", "setting": "[1]", "value": 0.550}, {"measurement": "Fa value", "setting": "[1]", "value": 0.2653}, {"measurement": "CI value", "setting": "[2]", "value": 0.349}, {"measurement": "Fa value", "setting": "[2]", "value": 0.3570}, {"measurement": "CI value", "setting": "[3]", "value": 0.196}, {"measurement": "Fa value", "setting": "[3]", "value": 0.6117}, {"measurement": "CI value", "setting": "[4]", "value": 0.449}, {"measurement": "Fa value", "setting": "[4]", "value": 0.5145}, {"measurement": "CI value", "setting": "[5]", "value": 0.770}, {"measurement": "Fa value", "setting": "[5]", "value": 0.4482}, {"measurement": "CI value", "setting": "[6]", "value": 0.388}, {"measurement": "Fa value", "setting": "[6]", "value": 0.6824}, {"measurement": "CI value", "setting": "[7]", "value": 0.226}, {"measurement": "Fa value", "setting": "[7]", "value": 0.7264}, {"measurement": "CI value", "setting": "[8]", "value": 0.195}, {"measurement": "Fa value", "setting": "[8]", "value": 0.7479}, {"measurement": "CI value", "setting": "[9]", "value": 0.350}, {"measurement": "Fa value", "setting": "[9]", "value": 0.7602}, {"measurement": "CI value", "setting": "[10]", "value": 0.367}, {"measurement": "Fa value", "setting": "[10]", "value": 0.8650}, {"measurement": "CI value", "setting": "[11]", "value": 0.471}, {"measurement": "Fa value", "setting": "[11]", "value": 0.4374}, {"measurement": "CI value", "setting": "[12]", "value": 0.193}, {"measurement": "Fa value", "setting": "[12]", "value": 0.8863}, {"measurement": "CI value", "setting": "[13]", "value": 0.190}, {"measurement": "Fa value", "setting": "[13]", "value": 0.8581}, {"measurement": "CI value", "setting": "[14]", "value": 0.315}, {"measurement": "Fa value", "setting": "[14]", "value": 0.8849}, {"measurement": "CI value", "setting": "[15]", "value": 0.895}, {"measurement": "Fa value", "setting": "[15]", "value": 0.5060}, {"measurement": "CI value", "setting": "[16]", "value": 0.461}, {"measurement": "Fa value", "setting": "[16]", "value": 0.7886}, {"measurement": "CI value", "setting": "[17]", "value": 0.501}, {"measurement": "Fa value", "setting": "[17]", "value": 0.5507}, {"measurement": "CI value", "setting": "[18]", "value": 0.537}, {"measurement": "Fa value", "setting": "[18]", "value": 0.8719}, {"measurement": "CI value", "setting": "[19]", "value": 0.502}, {"measurement": "Fa value", "setting": "[19]", "value": 0.5583}, {"measurement": "CI value", "setting": "[20]", "value": 0.288}, {"measurement": "Fa value", "setting": "[20]", "value": 0.8866}, {"measurement": "CI value", "setting": "[21]", "value": 0.257}, {"measurement": "Fa value", "setting": "[21]", "value": 0.8783}, {"measurement": "CI value", "setting": "[22]", "value": 0.721}, {"measurement": "Fa value", "setting": "[22]", "value": 0.6537}, {"measurement": "CI value", "setting": "[23]", "value": 0.890}, {"measurement": "Fa value", "setting": "[23]", "value": 0.6005}, {"measurement": "CI value", "setting": "[24]", "value": 0.881}, {"measurement": "Fa value", "setting": "[24]", "value": 0.6426}, {"measurement": "CI value", "setting": "[25]", "value": 0.482}, {"measurement": "Fa value", "setting": "[25]", "value": 0.8809}, {"measurement": "CI value", "setting": "[26]", "value": 0.676}, {"measurement": "Fa value", "setting": "[26]", "value": 0.7364}, {"measurement": "CI value", "setting": "[27]", "value": 0.491}, {"measurement": "Fa value", "setting": "[27]", "value": 0.8557}, {"measurement": "CI value", "setting": "[28]", "value": 0.583}, {"measurement": "Fa value", "setting": "[28]", "value": 0.6575}, {"measurement": "CI value", "setting": "[29]", "value": 0.772}, {"measurement": "Fa value", "setting": "[29]", "value": 0.6999}, {"measurement": "CI value", "setting": "[30]", "value": 0.858}, {"measurement": "Fa value", "setting": "[30]", "value": 0.8410}, {"measurement": "CI value", "setting": "[31]", "value": 0.563}, {"measurement": "Fa value", "setting": "[31]", "value": 0.6756}, {"measurement": "CI value", "setting": "[32]", "value": 0.480}, {"measurement": "Fa value", "setting": "[32]", "value": 0.8412}, {"measurement": "CI value", "setting": "[33]", "value": 0.894}, {"measurement": "Fa value", "setting": "[33]", "value": 0.7741}, {"measurement": "CI value", "setting": "[34]", "value": 0.871}, {"measurement": "Fa value", "setting": "[34]", "value": 0.7361}, {"measurement": "CI value", "setting": "[35]", "value": 0.761}, {"measurement": "Fa value", "setting": "[35]", "value": 0.6398}, {"measurement": "CI value", "setting": "[36]", "value": 0.831}, {"measurement": "Fa value", "setting": "[36]", "value": 0.7172}, {"measurement": "CI value", "setting": "[37]", "value": 0.688}, {"measurement": "Fa value", "setting": "[37]", "value": 0.8162}, {"measurement": "CI value", "setting": "[38]", "value": 0.661}, {"measurement": "Fa value", "setting": "[38]", "value": 0.6630}, {"measurement": "CI value", "setting": "[39]", "value": 0.717}, {"measurement": "Fa value", "setting": "[39]", "value": 0.8230}, {"measurement": "CI value", "setting": "[40]", "value": 0.790}, {"measurement": "Fa value", "setting": "[40]", "value": 0.9173}, {"measurement": "CI value", "setting": "[41]", "value": 0.632}, {"measurement": "Fa value", "setting": "[41]", "value": 0.9198}, {"measurement": "CI value", "setting": "[42]", "value": 0.848}, {"measurement": "Fa value", "setting": "[42]", "value": 0.9125}, {"measurement": "CI value", "setting": "[43]", "value": 0.761}, {"measurement": "Fa value", "setting": "[43]", "value": 0.8988}, {"measurement": "CI value", "setting": "[44]", "value": 0.502}, {"measurement": "Fa value", "setting": "[44]", "value": 0.9734}, {"measurement": "CI value", "setting": "[45]", "value": 0.694}, {"measurement": "Fa value", "setting": "[45]", "value": 0.9675}, {"measurement": "CI value", "setting": "[46]", "value": 0.569}, {"measurement": "Fa value", "setting": "[46]", "value": 0.9841}]}
